Source: ChEMBL document CHEMBL3217532, “New analyses of MIC90 data to aid antibacterial drug discovery” (2011)
Values after ≈ are worked out from the molar mass of the structure shown.

Tested on: Pseudomonas aeruginosa
Test: Antimicrobial activity against Pseudomonas aeruginosa 1957-00
Assay type: functional

Row | SMILES | MIC90
1 | CC(C)(O/N=C(\C(=O)N[C@H]1CN(C(=O)NS(=O)(=O)n2nc(-c3cc(=O)c(O)c[nH]3)n(C[C@@H](O)CO)c2=O)C1=O)c1csc(N)n1)C(=O)O | 0.06 µg/mL (≈ 0.084 µM)

Tested on: Pseudomonas aeruginosa
Test: Antimicrobial activity against Pseudomonas aeruginosa 1768-00
Assay type: functional

Row | SMILES | MIC90
2 | CC(C)(O/N=C(\C(=O)N[C@H]1CN(C(=O)NS(=O)(=O)n2nc(-c3cc(=O)c(O)c[nH]3)n(C[C@@H](O)CO)c2=O)C1=O)c1csc(N)n1)C(=O)O | 0.06 µg/mL (≈ 0.084 µM)

Tested on: Pseudomonas aeruginosa
Test: Antimicrobial activity against Pseudomonas aeruginosa 1562-05
Assay type: functional

Row | SMILES | MIC90
3 | CC(C)(O/N=C(\C(=O)N[C@H]1CN(C(=O)NS(=O)(=O)n2nc(-c3cc(=O)c(O)c[nH]3)n(C[C@@H](O)CO)c2=O)C1=O)c1csc(N)n1)C(=O)O | 0.125 µg/mL (≈ 0.175 µM)

Tested on: Pseudomonas aeruginosa
Test: Antimicrobial activity against Pseudomonas aeruginosa 1753-00
Assay type: functional

Row | SMILES | MIC90
4 | CC(C)(O/N=C(\C(=O)N[C@H]1CN(C(=O)NS(=O)(=O)n2nc(-c3cc(=O)c(O)c[nH]3)n(C[C@@H](O)CO)c2=O)C1=O)c1csc(N)n1)C(=O)O | 0.25 µg/mL (≈ 0.35 µM)

Tested on: Pseudomonas aeruginosa
Test: Antimicrobial activity against Pseudomonas aeruginosa PA-1757
Assay type: functional

Row | SMILES | MIC90
5 | CC(C)(O/N=C(\C(=O)N[C@H]1CN(C(=O)NS(=O)(=O)n2nc(-c3cc(=O)c(O)c[nH]3)n(C[C@@H](O)CO)c2=O)C1=O)c1csc(N)n1)C(=O)O | 8 µg/mL (≈ 11.2 µM)

Tested on: Pseudomonas aeruginosa
Test: Antimicrobial activity against Pseudomonas aeruginosa 1568-05
Assay type: functional

Row | SMILES | MIC90
6 | CC(C)(O/N=C(\C(=O)N[C@H]1CN(C(=O)NS(=O)(=O)n2nc(-c3cc(=O)c(O)c[nH]3)n(C[C@@H](O)CO)c2=O)C1=O)c1csc(N)n1)C(=O)O | 0.25 µg/mL (≈ 0.35 µM)

Tested on: Pseudomonas aeruginosa
Test: Antimicrobial activity against Pseudomonas aeruginosa 1954-00
Assay type: functional

Row | SMILES | MIC90
7 | CC(C)(O/N=C(\C(=O)N[C@H]1CN(C(=O)NS(=O)(=O)n2nc(-c3cc(=O)c(O)c[nH]3)n(C[C@@H](O)CO)c2=O)C1=O)c1csc(N)n1)C(=O)O | 0.06 µg/mL (≈ 0.084 µM)

Tested on: Pseudomonas aeruginosa
Test: Antimicrobial activity against Pseudomonas aeruginosa 1565-05
Assay type: functional

Row | SMILES | MIC90
8 | CC(C)(O/N=C(\C(=O)N[C@H]1CN(C(=O)NS(=O)(=O)n2nc(-c3cc(=O)c(O)c[nH]3)n(C[C@@H](O)CO)c2=O)C1=O)c1csc(N)n1)C(=O)O | 0.125 µg/mL (≈ 0.175 µM)

Tested on: Pseudomonas aeruginosa
Test: Antimicrobial activity against Pseudomonas aeruginosa 1612-09
Assay type: functional

Row | SMILES | MIC90
9 | CC(C)(O/N=C(\C(=O)N[C@H]1CN(C(=O)NS(=O)(=O)n2nc(-c3cc(=O)c(O)c[nH]3)n(C[C@@H](O)CO)c2=O)C1=O)c1csc(N)n1)C(=O)O | 0.5 µg/mL (≈ 0.7 µM)

Tested on: Pseudomonas aeruginosa
Test: Antimicrobial activity against Pseudomonas aeruginosa 1764-00
Assay type: functional

Row | SMILES | MIC90
10 | CC(C)(O/N=C(\C(=O)N[C@H]1CN(C(=O)NS(=O)(=O)n2nc(-c3cc(=O)c(O)c[nH]3)n(C[C@@H](O)CO)c2=O)C1=O)c1csc(N)n1)C(=O)O | 0.125 µg/mL (≈ 0.175 µM)

Tested on: Pseudomonas aeruginosa
Test: Antimicrobial activity against Pseudomonas aeruginosa 1512-08
Assay type: functional

Row | SMILES | MIC90
11 | CC(C)(O/N=C(\C(=O)N[C@H]1CN(C(=O)NS(=O)(=O)n2nc(-c3cc(=O)c(O)c[nH]3)n(C[C@@H](O)CO)c2=O)C1=O)c1csc(N)n1)C(=O)O | 0.25 µg/mL (≈ 0.35 µM)

Tested on: Pseudomonas aeruginosa
Test: Antimicrobial activity against Pseudomonas aeruginosa 1956-00
Assay type: functional

Row | SMILES | MIC90
12 | CC(C)(O/N=C(\C(=O)N[C@H]1CN(C(=O)NS(=O)(=O)n2nc(-c3cc(=O)c(O)c[nH]3)n(C[C@@H](O)CO)c2=O)C1=O)c1csc(N)n1)C(=O)O | 0.06 µg/mL (≈ 0.084 µM)

Tested on: Pseudomonas aeruginosa
Test: Antimicrobial activity against Pseudomonas aeruginosa 1613-09
Assay type: functional

Row | SMILES | MIC90
13 | CC(C)(O/N=C(\C(=O)N[C@H]1CN(C(=O)NS(=O)(=O)n2nc(-c3cc(=O)c(O)c[nH]3)n(C[C@@H](O)CO)c2=O)C1=O)c1csc(N)n1)C(=O)O | 0.5 µg/mL (≈ 0.7 µM)

Tested on: Pseudomonas aeruginosa
Test: Antimicrobial activity against Pseudomonas aeruginosa 1566-05
Assay type: functional

Row | SMILES | MIC90
14 | CC(C)(O/N=C(\C(=O)N[C@H]1CN(C(=O)NS(=O)(=O)n2nc(-c3cc(=O)c(O)c[nH]3)n(C[C@@H](O)CO)c2=O)C1=O)c1csc(N)n1)C(=O)O | 0.125 µg/mL (≈ 0.175 µM)

Tested on: Pseudomonas aeruginosa
Test: Antimicrobial activity against Pseudomonas aeruginosa 1523-08
Assay type: functional

Row | SMILES | MIC90
15 | CC(C)(O/N=C(\C(=O)N[C@H]1CN(C(=O)NS(=O)(=O)n2nc(-c3cc(=O)c(O)c[nH]3)n(C[C@@H](O)CO)c2=O)C1=O)c1csc(N)n1)C(=O)O | 0.25 µg/mL (≈ 0.35 µM)

Tested on: Pseudomonas aeruginosa
Test: Antimicrobial activity against Pseudomonas aeruginosa 1563-00
Assay type: functional

Row | SMILES | MIC90
16 | CC(C)(O/N=C(\C(=O)N[C@H]1CN(C(=O)NS(=O)(=O)n2nc(-c3cc(=O)c(O)c[nH]3)n(C[C@@H](O)CO)c2=O)C1=O)c1csc(N)n1)C(=O)O | 0.125 µg/mL (≈ 0.175 µM)

Tested on: Pseudomonas aeruginosa
Test: Antimicrobial activity against Pseudomonas aeruginosa 1510-08
Assay type: functional

Row | SMILES | MIC90
17 | CC(C)(O/N=C(\C(=O)N[C@H]1CN(C(=O)NS(=O)(=O)n2nc(-c3cc(=O)c(O)c[nH]3)n(C[C@@H](O)CO)c2=O)C1=O)c1csc(N)n1)C(=O)O | 8 µg/mL (≈ 11.2 µM)

Tested on: Pseudomonas aeruginosa
Test: Antimicrobial activity against Pseudomonas aeruginosa 1570-05
Assay type: functional

Row | SMILES | MIC90
18 | CC(C)(O/N=C(\C(=O)N[C@H]1CN(C(=O)NS(=O)(=O)n2nc(-c3cc(=O)c(O)c[nH]3)n(C[C@@H](O)CO)c2=O)C1=O)c1csc(N)n1)C(=O)O | 0.125 µg/mL (≈ 0.175 µM)

Tested on: Pseudomonas aeruginosa
Test: Antimicrobial activity against Pseudomonas aeruginosa 1615-09
Assay type: functional

Row | SMILES | MIC90
19 | CC(C)(O/N=C(\C(=O)N[C@H]1CN(C(=O)NS(=O)(=O)n2nc(-c3cc(=O)c(O)c[nH]3)n(C[C@@H](O)CO)c2=O)C1=O)c1csc(N)n1)C(=O)O | 0.25 µg/mL (≈ 0.35 µM)

Tested on: Pseudomonas aeruginosa
Test: Antimicrobial activity against Pseudomonas aeruginosa 1766-00
Assay type: functional

Row | SMILES | MIC90
20 | CC(C)(O/N=C(\C(=O)N[C@H]1CN(C(=O)NS(=O)(=O)n2nc(-c3cc(=O)c(O)c[nH]3)n(C[C@@H](O)CO)c2=O)C1=O)c1csc(N)n1)C(=O)O | 16 µg/mL (≈ 22.4 µM)

Tested on: Pseudomonas aeruginosa
Test: Antimicrobial activity against Pseudomonas aeruginosa 1514-08
Assay type: functional

Row | SMILES | MIC90
21 | CC(C)(O/N=C(\C(=O)N[C@H]1CN(C(=O)NS(=O)(=O)n2nc(-c3cc(=O)c(O)c[nH]3)n(C[C@@H](O)CO)c2=O)C1=O)c1csc(N)n1)C(=O)O | 0.5 µg/mL (≈ 0.7 µM)

Tested on: Pseudomonas aeruginosa
Test: Antimicrobial activity against Pseudomonas aeruginosa PA-4995
Assay type: functional

Row | SMILES | MIC90
22 | CC(C)(O/N=C(\C(=O)N[C@H]1CN(C(=O)NS(=O)(=O)n2nc(-c3cc(=O)c(O)c[nH]3)n(C[C@@H](O)CO)c2=O)C1=O)c1csc(N)n1)C(=O)O | 0.125 µg/mL (≈ 0.175 µM)

Tested on: Pseudomonas aeruginosa
Test: Antimicrobial activity against Pseudomonas aeruginosa 1619-08
Assay type: functional

Row | SMILES | MIC90
23 | CC(C)(O/N=C(\C(=O)N[C@H]1CN(C(=O)NS(=O)(=O)n2nc(-c3cc(=O)c(O)c[nH]3)n(C[C@@H](O)CO)c2=O)C1=O)c1csc(N)n1)C(=O)O | 0.06 µg/mL (≈ 0.084 µM)

Tested on: Pseudomonas aeruginosa
Test: Antimicrobial activity against Pseudomonas aeruginosa 1761-00
Assay type: functional

Row | SMILES | MIC90
24 | CC(C)(O/N=C(\C(=O)N[C@H]1CN(C(=O)NS(=O)(=O)n2nc(-c3cc(=O)c(O)c[nH]3)n(C[C@@H](O)CO)c2=O)C1=O)c1csc(N)n1)C(=O)O | 1 µg/mL (≈ 1.4 µM)

Tested on: Pseudomonas aeruginosa
Test: Antimicrobial activity against Pseudomonas aeruginosa 1561-05
Assay type: functional

Row | SMILES | MIC90
25 | CC(C)(O/N=C(\C(=O)N[C@H]1CN(C(=O)NS(=O)(=O)n2nc(-c3cc(=O)c(O)c[nH]3)n(C[C@@H](O)CO)c2=O)C1=O)c1csc(N)n1)C(=O)O | 1 µg/mL (≈ 1.4 µM)

Tested on: Pseudomonas aeruginosa
Test: Antimicrobial activity against Pseudomonas aeruginosa 1951-00
Assay type: functional

Row | SMILES | MIC90
26 | CC(C)(O/N=C(\C(=O)N[C@H]1CN(C(=O)NS(=O)(=O)n2nc(-c3cc(=O)c(O)c[nH]3)n(C[C@@H](O)CO)c2=O)C1=O)c1csc(N)n1)C(=O)O | 0.25 µg/mL (≈ 0.35 µM)
